Source: patent US9833497B2, “Human originated EGF domain proteins and use of the same” (CHENGDU SOURCEBIO LIMITED-LIABILITY COMPANY, priority 2013, dated 2017)

Key:
Assay type in all cases: cell-based
Moraxella catarrhalis = experiment: MIC against Gram-negative bacteria: Moraxella catarrhalis; conditions: for MIC / MIC (μg/mL) M. catarrhalis: M. catarrhalis; for MIC (μg/mL) M. catarrhalis / MIC against M. catarrhalis: 5×10^5 CFU/mL
How it was run: (§1)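 LB broth cultures at McFarland 0.5, spun down, resuspended, diluted to 5×10^5 CFU/mL final. Two-fold serial dilutions of purified human EGF domain proteins, triplicate. 37° C, 175 rpm shaking. Endpoint: no visible growth.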

Aeromonas hydrophila = experiment: MIC against Gram-negative bacteria: Aeromonas hydrophila; conditions: for MIC / MIC (μg/mL) A. hydrophila: A. hydrophila; for MIC (μg/mL) A. hydrophila / MIC against A. hydrophila: 5×10^5 CFU/mL
How it was run: as §1

Enterobacter cloacae = experiment: MIC against Gram-negative bacteria: Enterobacter cloacae; conditions: for MIC / MIC (μg/mL) E. cloacae: E. cloacae; for MIC (μg/mL) E. cloacae / MIC against E. cloacae: 5×10^5 CFU/mL
How it was run: as §1

Citrobacter diversus = experiment: MIC against Gram-negative bacteria: Citrobacter diversus; conditions: for MIC / MIC (μg/mL) C. diversus: C. diversus; for MIC (μg/mL) C. diversus / MIC against C. diversus: 5×10^5 CFU/mL
How it was run: as §1

Proteus vulgaris = experiment: MIC against Gram-negative bacteria: Proteus vulgaris; conditions: for MIC / MIC (μg/mL) P. vulgaris: P. vulgaris; for MIC (μg/mL) P. vulgaris / MIC against P. vulgaris: 5×10^5 CFU/mL
How it was run: as §1

Proteus mirabilis = experiment: MIC against Gram-negative bacteria: Proteus mirabilis; conditions: for MIC / MIC (μg/mL) P. mirabilis: P. mirabilis; for MIC (μg/mL) P. mirabilis / MIC against P. mirabilis: 5×10^5 CFU/mL
How it was run: as §1

E. coli DH5α = experiment: Antibacterial activity: MIC and growth curve against E. coli DH5α in 96-well plate; conditions: minimal inhibitory concentration against E. coli DH5α; 96-well plate, 5×10^5 CFU/mL, 37° C., judged after 8 h
How it was run: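 Log-phase DH5α (OD600 about 0.5, 37° C, 185 rpm in LB) was pelleted, resuspended in fresh LB and seeded at 5×10^5 CFU/mL with recombinant protein at 50, 25 and 12.5 μg/mL (two-fold series), in triplicate. Plates were shaken at 175 rpm, 37° C, and OD600 was read every 30 min. MIC was the lowest concentration with no growth.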

E. coli BL21 = experiment: MIC against Gram-negative bacteria: E. coli BL21; conditions: for MIC (μg/mL) E. coli BL21 / MIC against E. coli BL21: 5×10^5 CFU/mL
How it was run: as §1

Serratia marcescens = experiment: MIC against Gram-negative bacteria: Serratia marcescens; conditions: for MIC / MIC (μg/mL) S. marcescens: S. marcescens; for MIC (μg/mL) S. marcescens / MIC against S. marcescens: 5×10^5 CFU/mL
How it was run: as §1

Pseudomonas aeruginosa = experiment: MIC against Gram-negative bacteria: Pseudomonas aeruginosa; conditions: for MIC / MIC (μg/mL) P. aeruginosa: P. aeruginosa; for MIC (μg/mL) P. aeruginosa / MIC against P. aeruginosa: 5×10^5 CFU/mL
How it was run: as §1

Klebsiella pneumonia = experiment: MIC against Gram-negative bacteria: Klebsiella pneumonia; conditions: for MIC / MIC (μg/mL) K. pneumonia: K. pneumonia; for MIC (μg/mL) K. pneumonia / MIC against K. pneumonia: 5×10^5 CFU/mL
How it was run: as §1

[1] = E. coli BL21, 10 h cultivation at 37° C.

PRT932 (QVNECLSNPCIHGNCTGGLSGYKCLCDAGWVGINCE; listed as Homo sapiens)
MIC (Moraxella catarrhalis; 10 h cultivation at 37° C.): 12.5 µg/mL | MIC (Aeromonas hydrophila; 10 h cultivation at 37° C.): 12.5 µg/mL | MIC (Enterobacter cloacae; 10 h cultivation at 37° C.): 25 µg/mL | MIC (Citrobacter diversus; 10 h cultivation at 37° C.): 25 µg/mL | MIC (Proteus vulgaris; 10 h cultivation at 37° C.): 12.5 µg/mL | MIC (Proteus mirabilis; 10 h cultivation at 37° C.): 25 µg/mL | MIC (E. coli DH5α): 25 µg/mL | MIC (E. coli BL21; [1]): 50 µg/mL | MIC (Serratia marcescens; 10 h cultivation at 37° C.): 12.5 µg/mL | MIC (Pseudomonas aeruginosa; 10 h cultivation at 37° C.): 12.5 µg/mL | MIC (Klebsiella pneumonia; 10 h cultivation at 37° C.): 12.5 µg/mL

PRT253 (DYCSQNTCLNGGKCSWTHGAGYVCKCPPQFSGKHCE; listed as Homo sapiens)
MIC (μg/mL) M. catarrhalis (Moraxella catarrhalis; 10 h cultivation at 37° C.): 25 µg/mL | MIC (μg/mL) A. hydrophila (Aeromonas hydrophila; 10 h cultivation at 37° C.): 25 µg/mL | MIC (μg/mL) E. cloacae (Enterobacter cloacae; 10 h cultivation at 37° C.): 12.5 µg/mL | MIC (μg/mL) C. diversus (Citrobacter diversus; 10 h cultivation at 37° C.): 12.5 µg/mL | MIC (μg/mL) P. vulgaris (Proteus vulgaris; 10 h cultivation at 37° C.): 25 µg/mL | MIC (μg/mL) P. mirabilis (Proteus mirabilis; 10 h cultivation at 37° C.): 12.5 µg/mL | MIC (E. coli DH5α): 12.5 µg/mL | MIC (μg/mL) E. coli BL21 (E. coli BL21; [1]): 25 µg/mL | MIC (μg/mL) S. marcescens (Serratia marcescens; 10 h cultivation at 37° C.): 12.5 µg/mL | MIC (μg/mL) P. aeruginosa (Pseudomonas aeruginosa; 10 h cultivation at 37° C.): 12.5 µg/mL | MIC (μg/mL) K. pneumonia (Klebsiella pneumonia; 10 h cultivation at 37° C.): 25 µg/mL

PRT958 (DVDECSIGANPCEHLGRCVNTQGSFLCQCGRGYTGPRCE; listed as Homo sapiens)
MIC (Moraxella catarrhalis; 10 h cultivation at 37° C.): 50 µg/mL | MIC (Aeromonas hydrophila; 10 h cultivation at 37° C.): 25 µg/mL | MIC (Enterobacter cloacae; 10 h cultivation at 37° C.): 25 µg/mL | MIC (Citrobacter diversus; 10 h cultivation at 37° C.): 12.5 µg/mL | MIC (Proteus vulgaris; 10 h cultivation at 37° C.): 12.5 µg/mL | MIC (Proteus mirabilis; 10 h cultivation at 37° C.): 25 µg/mL | MIC (E. coli DH5α): 50 µg/mL | MIC (E. coli BL21; [1]): 12.5 µg/mL | MIC (Serratia marcescens; 10 h cultivation at 37° C.): 25 µg/mL | MIC (Pseudomonas aeruginosa; 10 h cultivation at 37° C.): 25 µg/mL | MIC (Klebsiella pneumonia; 10 h cultivation at 37° C.): 50 µg/mL

PRT1335 (MTDICKSDNPCHRNANCTTVAPGRTECICQKGYVGDGLTCY; listed as Homo sapiens)
MIC against M. catarrhalis (Moraxella catarrhalis; Moraxella catarrhalis, 96-well plate, 37° C., 10 h): 50 µg/mL | MIC against A. hydrophila (Aeromonas hydrophila; Aeromonas hydrophila, 96-well plate, 37° C., 10 h): 12.5 µg/mL | MIC against E. cloacae (Enterobacter cloacae; Enterobacter cloacae, 96-well plate, 37° C., 10 h): 50 µg/mL | MIC against C. diversus (Citrobacter diversus; Citrobacter diversus, 96-well plate, 37° C., 10 h): 25 µg/mL | MIC against P. vulgaris (Proteus vulgaris; Proteus vulgaris, 96-well plate, 37° C., 10 h): 12.5 µg/mL | MIC against P. mirabilis (Proteus mirabilis; Proteus mirabilis, 96-well plate, 37° C., 10 h): 25 µg/mL | MIC (E. coli DH5α): 50 µg/mL | MIC against E. coli BL21 (E. coli BL21; E. coli BL21, 96-well plate, 37° C., 10 h): 12.5 µg/mL | MIC against S. marcescens (Serratia marcescens; Serratia marcescens, 96-well plate, 37° C., 10 h): 50 µg/mL | MIC against P. aeruginosa (Pseudomonas aeruginosa; Pseudomonas aeruginosa, 96-well plate, 37° C., 10 h): 50 µg/mL | MIC against K. pneumonia (Klebsiella pneumonia; Klebsiella pneumonia, 96-well plate, 37° C., 10 h): 12.5 µg/mL

PRT1440 (DKDECSKDNGGCQHECVNTMGSYMCQCRNGFVLHDNKHDCK; listed as Homo sapiens)
MIC against M. catarrhalis (Moraxella catarrhalis; Moraxella catarrhalis, 10 h cultivation at 37° C.): 12.5 µg/mL | MIC against A. hydrophila (Aeromonas hydrophila; Aeromonas hydrophila, 10 h cultivation at 37° C.): 25 µg/mL | MIC against E. cloacae (Enterobacter cloacae; Enterobacter cloacae, 10 h cultivation at 37° C.): 12.5 µg/mL | MIC against C. diversus (Citrobacter diversus; Citrobacter diversus, 10 h cultivation at 37° C.): 25 µg/mL | MIC against P. vulgaris (Proteus vulgaris; Proteus vulgaris, 10 h cultivation at 37° C.): 12.5 µg/mL | MIC against P. mirabilis (Proteus mirabilis; Proteus mirabilis, 10 h cultivation at 37° C.): 25 µg/mL | MIC (E. coli DH5α): 12.5 µg/mL | MIC against E. coli BL21 (E. coli BL21; [1]): 25 µg/mL | MIC against S. marcescens (Serratia marcescens; Serratia marcescens, 10 h cultivation at 37° C.): 25 µg/mL | MIC against P. aeruginosa (Pseudomonas aeruginosa; Pseudomonas aeruginosa, 10 h cultivation at 37° C.): 12.5 µg/mL | MIC against K. pneumonia (Klebsiella pneumonia; Klebsiella pneumonia, 10 h cultivation at 37° C.): 25 µg/mL

PRT769 (CNGVDHGCEFQCVSEGLSYRCLCPEGRQLQADGKSC; listed as Homo sapiens)
MIC (μg/mL) M. catarrhalis (Moraxella catarrhalis; 10 h cultivation at 37° C.): 12.5 µg/mL | MIC (μg/mL) A. hydrophila (Aeromonas hydrophila; 10 h cultivation at 37° C.): 25 µg/mL | MIC (μg/mL) E. cloacae (Enterobacter cloacae; 10 h cultivation at 37° C.): 12.5 µg/mL | MIC (μg/mL) C. diversus (Citrobacter diversus; 10 h cultivation at 37° C.): 12.5 µg/mL | MIC (μg/mL) P. vulgaris (Proteus vulgaris; 10 h cultivation at 37° C.): 25 µg/mL | MIC (μg/mL) P. mirabilis (Proteus mirabilis; 10 h cultivation at 37° C.): 12.5 µg/mL | MIC (E. coli DH5α): 12.5 µg/mL | MIC (μg/mL) E. coli BL21 (E. coli BL21; [1]): 12.5 µg/mL | MIC (μg/mL) S. marcescens (Serratia marcescens; 10 h cultivation at 37° C.): 12.5 µg/mL | MIC (μg/mL) P. aeruginosa (Pseudomonas aeruginosa; 10 h cultivation at 37° C.): 12.5 µg/mL | MIC (μg/mL) K. pneumonia (Klebsiella pneumonia; 10 h cultivation at 37° C.): 25 µg/mL

PRT537 (CDCNGNSNECLDGSGYCVHCQRNTTGEHCEKCLDGYIGDSIRGAPQFCQP; listed as Homo sapiens)
MIC against M. catarrhalis (Moraxella catarrhalis; 96-well plate, 37° C., 10 h): 25 µg/mL | MIC against A. hydrophila (Aeromonas hydrophila; 96-well plate, 37° C., 10 h): 25 µg/mL | MIC against E. cloacae (Enterobacter cloacae; 96-well plate, 37° C., 10 h): 50 µg/mL | MIC against C. diversus (Citrobacter diversus; 96-well plate, 37° C., 10 h): 12.5 µg/mL | MIC against P. vulgaris (Proteus vulgaris; 96-well plate, 37° C., 10 h): 25 µg/mL | MIC against P. mirabilis (Proteus mirabilis; 96-well plate, 37° C., 10 h): 12.5 µg/mL | MIC (E. coli DH5α): 50 µg/mL | MIC against E. coli BL21 (E. coli BL21; 96-well plate, 37° C., 10 h): 25 µg/mL | MIC against S. marcescens (Serratia marcescens; 96-well plate, 37° C., 10 h): 12.5 µg/mL | MIC against P. aeruginosa (Pseudomonas aeruginosa; 96-well plate, 37° C., 10 h): 12.5 µg/mL | MIC against K. pneumonia (Klebsiella pneumonia; 96-well plate, 37° C., 10 h): 25 µg/mL
